Test system: greenhouse whitefly
Experiment: Greenhouse whitefly controlling effect (cucumber dip)
Format: in vivo, Trialeurodes vaporariorum
Conditions: wettable powder per Formulation Example 2, active ingredient 100 μg/ml, 25° C., after 120 hours
Experimental: This was allowed to be inhabited with 20 adult insects of the greenhouse whitefly, covered with the stopper, and allowed to stand in a room whose temperature was constant at 25° C. After 120 hours, the number of viable insects was counted.
The overground part of the 1-leaf stage cucumber was dipped in a 100 μg/ml treatment solution obtained by a 5000-fold dilution with water of the prepared wettable powder, and air-dried, and then transferred to a plastic container having a stopper. This was allowed to be inhabited with 20 adult insects of the greenhouse whitefly, covered with the stopper, and allowed to stand in a room whose temperature was constant at 25° C. After 120 hours, the number of viable insects was counted.

SMILES	lethality
O=C(/N=C1\SCCN1Cc1ccc(Cl)nc1)C(F)(F)F [Formula (12)]	25%

Test system: cotton aphid, green peach aphid, greenhouse whitefly, two-spotted spider mite
Experiment: not given
Conditions: in vivo

SMILES	pest controlling effects
O=C(N=C1SCCN1Cc1ccc(Cl)nc1)C(Cl)(Cl)Cl [Compound 5]	excellent pest controlling effects
CCCOC(=O)N=C1SCCN1Cc1ccc(Cl)nc1 [Compound 43]	excellent pest controlling effects
CC(C)OC(=O)N=C1SCCN1Cc1ccc(Cl)nc1 [Compound 44]	excellent pest controlling effects
O=C(N=C1SCCN1Cc1ccc(Cl)nc1)OCCCl [Compound 45]	excellent pest controlling effects
CC(=O)N=C1SCCN1Cc1ccc(Cl)nc1 [Compound 72]	excellent pest controlling effects
O=C(CCl)N=C1SCCN1Cc1ccc(Cl)nc1 [Compound 73]	excellent pest controlling effects
O=C(N=C1SCCN1Cc1ccc(Cl)nc1)C(F)F [Compound 76]	excellent pest controlling effects
COCC(=O)N=C1SCCN1Cc1ccc(Cl)nc1 [Compound 78]	excellent pest controlling effects
CSCCC(=O)N=C1SCCN1Cc1ccc(Cl)nc1 [Compound 90]	excellent pest controlling effects
O=C(N=C1SCCN1Cc1ccc(Cl)nc1)C1CC1 [Compound 92]	excellent pest controlling effects
O=C(N=C1SCCN1Cc1ccc(Cl)nc1)C1CC1(F)F (stereo not shown) [Compound 103]	excellent pest controlling effects
CONC(=O)N=C1SCCN1Cc1ccc(Cl)nc1 [Compound 106]	excellent pest controlling effects
CCOC(=O)N=C1SCCN1Cc1ccc(Cl)nc1 [Compound 113]	excellent pest controlling effects
O=C(N=C1SCCN1Cc1ccc(Cl)nc1)OCCF [Compound 114]	excellent pest controlling effects
O=C(N=C1SCCN1Cc1ccc(Cl)nc1)OCC(F)F [Compound 115]	excellent pest controlling effects
COCCOC(=O)N=C1SCCN1Cc1ccc(Cl)nc1 [Compound 118]	excellent pest controlling effects
CSCCOC(=O)N=C1SCCN1Cc1ccc(Cl)nc1 [Compound 119]	excellent pest controlling effects
O=C(N=C1SCCN1Cc1ccc(Cl)nc1)OCCCF [Compound 122]	excellent pest controlling effects
C=CCOC(=O)N=C1SCCN1Cc1ccc(Cl)nc1 [Compound 126]	excellent pest controlling effects
CCCCOC(=O)N=C1SCCN1Cc1ccc(Cl)nc1 [Compound 128]	excellent pest controlling effects
CC(C)COC(=O)N=C1SCCN1Cc1ccc(Cl)nc1 [Compound 129]	excellent pest controlling effects
CCC(C)OC(=O)N=C1SCCN1Cc1ccc(Cl)nc1 (stereo not shown) [Compound 130]	excellent pest controlling effects
CC(C)=CCOC(=O)N=C1SCCN1Cc1ccc(Cl)nc1 [Compound 135]	excellent pest controlling effects
CCCCCOC(=O)N=C1SCCN1Cc1ccc(Cl)nc1 [Compound 136]	excellent pest controlling effects
O=C(N=C1SCCN1Cc1ccc(Cl)nc1)OCC1CC1 [Compound 139]	excellent pest controlling effects
O=C(N=C1SCCN1Cc1ccc(Cl)nc1)OCC1CCOC1 (stereo not shown) [Compound 144]	excellent pest controlling effects
O=C(N=C1SCCN1Cc1ccc(Cl)nc1)OC1CCOCC1 [Compound 146]	excellent pest controlling effects

From patent US20110172433A1, “NOVEL IMINO DERIVATIVES, METHODS FOR PRODUCING THE SAME AND INSECTICIDES CONTAINING THE SAME” (priority 2008, published 2011)
